The numbers were not newly measured in patent publication US20100151008A1, “Preparations and Methods for Textile and or Fiber Surface Finishing, Surface Finished Articles Prepared Thereby, and Uses Therefor” (Cognis IP Management GmbH, priority 2003, published 2010), which cites them from elsewhere.

With `CC(C)CCC[C@@H](C)[C@H]1CC[C@H]2[C@@H]3CC=C4C[C@@H](O)CC[C@]4(C)[C@H]3CC[C@]12C` [cholesterol, 5-cholesten-3b-ol], under “alcohol”, the solubility in alcohol result is “only sparingly when cold, but more readily after heating”. Also, the “solubility in ether, benzene and petroleum ether” value (ether, benzene and petroleum ether) is reported as “soluble”. Also, the solubility in water entry (water) was “virtually insoluble”.
